{"source": "patent US20090239285A1", "about": "“TANDEM REAPEAT DNA CONSTRUCTS PRODUCING PROTEINS THAT ATTACK PLANT PATHOGENIC VIRUSES, FUNGI, AND BACTERIA BY DISRUPTING TRANSCRIPTION FACTORS ESSENTIAL FOR REPLICATION THEREOF IN PLANTS” (priority 2008, published 2009)", "origin": "cited, not measured here", "test_system": "rice blast fungus Magnaporthe grisea", "conditions": "PA treated plants; doses in range 0.5 mg/mL; cited from earlier work"}
{"smiles": "O=C(O)c1ccccn1", "note": "[Picolinic acid, 2-pyridine carboxylic acid]", "values": [{"measurement": "resistance against M. grisea", "result": "enhanced"}]}
